The text below walks through data of patent US9598387B2 (Southern Research Institute, priority 2012, dated 2017).

Assay [1] has as its target human D3 dopamine receptor (Homo sapiens (Human), UniProt P35462). In words: Radioligand binding (125I-IABN competition), D3. The following applies: for Ki: 125I-IABN competition, HEK cell membranes expressing human D3; for D2/D3 (D3 selectivity ratio, D2 Ki/D3 Ki): calculated D2 Ki/D3 Ki. The procedure: (§1) The affinities of the target compounds were determined using radioligand binding experiments. […] Competition curves were modeled for a single site. Data from competition dose-response curves were analyzed using Tablecurve program (Jandel). IC50 values were converted to equilibrium dissociation constants (Ki values) using the Cheng and Prusoff correction.

Assay [2] concerns the target human D2-long dopamine receptor (Homo sapiens (Human), UniProt P14416). In words: Radioligand binding (125I-IABN competition), D2. The note with it: HEK cell membranes expressing human D2-long. The procedure:
as §1

Chain of human D2-long dopamine receptor (P14416 whole entry): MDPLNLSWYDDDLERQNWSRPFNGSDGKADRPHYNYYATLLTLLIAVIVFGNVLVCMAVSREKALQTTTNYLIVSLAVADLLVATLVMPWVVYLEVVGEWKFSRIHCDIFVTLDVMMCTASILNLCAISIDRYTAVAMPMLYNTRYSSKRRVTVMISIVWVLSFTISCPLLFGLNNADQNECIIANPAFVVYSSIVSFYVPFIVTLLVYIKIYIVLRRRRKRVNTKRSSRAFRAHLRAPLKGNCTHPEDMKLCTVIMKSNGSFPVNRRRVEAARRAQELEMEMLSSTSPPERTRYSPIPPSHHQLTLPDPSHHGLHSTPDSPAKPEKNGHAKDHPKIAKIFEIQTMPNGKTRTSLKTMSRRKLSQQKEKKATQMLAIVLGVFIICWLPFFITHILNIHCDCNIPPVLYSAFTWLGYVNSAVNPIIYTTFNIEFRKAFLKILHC
Chain of human D3 dopamine receptor (P35462 whole entry): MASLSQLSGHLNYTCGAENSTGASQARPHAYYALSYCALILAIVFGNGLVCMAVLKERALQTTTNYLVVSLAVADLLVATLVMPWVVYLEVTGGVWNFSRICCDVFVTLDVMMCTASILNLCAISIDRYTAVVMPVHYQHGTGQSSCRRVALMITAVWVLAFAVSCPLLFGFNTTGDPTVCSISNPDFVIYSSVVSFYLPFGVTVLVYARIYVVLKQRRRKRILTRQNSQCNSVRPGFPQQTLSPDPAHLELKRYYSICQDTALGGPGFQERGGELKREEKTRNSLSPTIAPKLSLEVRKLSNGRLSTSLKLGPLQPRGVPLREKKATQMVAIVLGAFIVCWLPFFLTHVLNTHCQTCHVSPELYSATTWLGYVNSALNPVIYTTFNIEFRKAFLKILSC

As a reminder, the Ki is a dissociation constant, usually derived from enzyme kinetics or from competition with a known ligand. Low readings indicate tighter binding, high ones weaker binding. With `CC(C)(C)c1nc(N2CCN(CCCCNC(=O)N3CCN(c4cccc(Cl)c4)CC3)CC2)cc(C(F)(F)F)n1` [Compound 15, N-(4-(4-(2-(tert-Butyl)-6-(trifluoromethyl)pyrimidin-4-yl)piperazin-1-yl)butyl)-4-(3-chlorophenyl)piperazine-1-carboxamide], in assay [1], the Ki worked out at 19.3 ± 1.6 nM and the “D2/D3 (D3 selectivity ratio, D2 Ki/D3 Ki)” value is on record as 30. The same compound gave an inhibition constant (Ki) in assay [2] of 582 ± 127 nM.
For `CC(C)(C)c1nc(N2CCN(CCCCNC(=O)N3CCC(c4ccc(Cl)cc4)CC3)CC2)cc(C(F)(F)F)n1` [Compound 16, N-(4-(4-(2-(tert-Butyl)-6-(trifluoromethyl)pyrimidin-4-yl)piperazin-1-yl)butyl)-4-(4-chlorophenyl)piperidine-1-carboxamide], in assay [1], the Ki was 21.2 ± 1.4 nM and the “D2/D3 (D3 selectivity ratio, D2 Ki/D3 Ki)” value is on record as 42. The compound also showed a Ki in assay [2] of 894 ± 200 nM.
Regarding `CC(C)(C)c1nc(N2CCN(CCCCNC(=O)N3CCC(C#N)(c4ccccc4)CC3)CC2)cc(C(F)(F)F)n1` [Compound 17, N-(4-(4-(2-(tert-Butyl)-6-(trifluoromethyl)pyrimidin-4-yl)piperazin-1-yl)butyl)-4-cyano-4-phenylpiperidine-1-carboxamide], the figures for the Ki in assay [1] and in assay [2] were 16 nM and 843 ± 95 nM, respectively. In assay [1], the “D2/D3 (D3 selectivity ratio, D2 Ki/D3 Ki)” value is 52.
With `CC(C)(C)c1nc(N2CCN(CCCCNC(=O)N3CCN(c4cccc(Cl)c4Cl)CC3)CC2)cc(C(F)(F)F)n1` [Compound 18, N-(4-(4-(2-(tert-Butyl)-6-(trifluoromethyl)pyrimidin-4-yl)piperazin-1-yl)butyl)-4-(2,3-dichlorophenyl)piperazine-1-carboxamide], in assay [1], the affinity corresponds to a Ki of 24.6 ± 4.9 nM and the “D2/D3 (D3 selectivity ratio, D2 Ki/D3 Ki)” value is recorded as 31. The compound further showed an inhibition constant Ki in assay [2] of 759 ± 97 nM.
Consider `COc1ccccc1N1CCN(C(=O)NCCCCN2CCN(c3cc(C(F)(F)F)nc(C(C)(C)C)n3)CC2)CC1` [Compound 19, N-(4-(4-(2-(tert-Butyl)-6-(trifluoromethyl)pyrimidin-4-yl)piperazin-1-yl)butyl)-4-(2-methoxyphenyl)piperazine-1-carboxamide], for which the values for the Ki in assay [1] and in assay [2] were 25.2 ± 5.5 nM and 861 ± 137 nM, respectively. In addition, in assay [1], the “D2/D3 (D3 selectivity ratio, D2 Ki/D3 Ki)” value was 34.
On to `COc1cccc(N2CCN(C(=O)NCCCCN3CCN(c4cc(C(F)(F)F)nc(C(C)(C)C)n4)CC3)CC2)c1` [Compound 20, N-(4-(4-(2-(tert-Butyl)-6-(trifluoromethyl)pyrimidin-4-yl)piperazin-1-yl)butyl)-4-(3-methoxyphenyl)piperazine-1-carboxamide], for which, in assay [1], the inhibition constant Ki was found to be 13 ± 0.7 nM and the “D2/D3 (D3 selectivity ratio, D2 Ki/D3 Ki)” value was 58. In addition, the Ki in assay [2] came to 762 ± 159 nM.
As for `COc1ccc(N2CCN(C(=O)NCCCCN3CCN(c4cc(C(F)(F)F)nc(C(C)(C)C)n4)CC3)CC2)cc1` [Compound 21, N-(4-(4-(2-(tert-Butyl)-6-(trifluoromethyl)pyrimidin-4-yl)piperazin-1-yl)butyl)-4-(4-methoxyphenyl)piperazine-1-carboxamide], in assay [1], the inhibition constant (Ki) amounted to 11.6 ± 0.9 nM and the “D2/D3 (D3 selectivity ratio, D2 Ki/D3 Ki)” value is listed as 48. The Ki in assay [2] was 557 ± 79.5 nM.
In the case of `Cc1cccc(N2CCN(C(=O)NCCCCN3CCN(c4cc(C(F)(F)F)nc(C(C)(C)C)n4)CC3)CC2)c1` [Compound 22, N-(4-(4-(2-(tert-Butyl)-6-(trifluoromethyl)pyrimidin-4-yl)piperazin-1-yl)butyl)-4-(m-tolyl)piperazine-1-carboxamide], the Ki in assay [1] worked out at 24.7 ± 5.4 nM; in assay [2], 928 ± 231 nM. Moreover, the “D2/D3 (D3 selectivity ratio, D2 Ki/D3 Ki)” value in assay [1] is 38.
In the case of `Cc1ccc(N2CCN(C(=O)NCCCCN3CCN(c4cc(C(F)(F)F)nc(C(C)(C)C)n4)CC3)CC2)cc1` [Compound 23, N-(4-(4-(2-(tert-Butyl)-6-(trifluoromethyl)pyrimidin-4-yl)piperazin-1-yl)butyl)-4-(p-tolyl)piperazine-1-carboxamide], in assay [1], the affinity corresponds to a Ki of 22.8 ± 4.2 nM and the “D2/D3 (D3 selectivity ratio, D2 Ki/D3 Ki)” value was 35. This compound registered a Ki in assay [2] of 802 ± 179 nM.
The matching figures for `Cc1cccc(N2CCN(C(=O)NCCCCN3CCN(c4cc(C(F)(F)F)nc(C(C)(C)C)n4)CC3)CC2)c1C` [Compound 24, N-(4-(4-(2-(tert-Butyl)-6-(trifluoromethyl)pyrimidin-4-yl)piperazin-1-yl)butyl)-4-(2,3-dimethylphenyl)piperazine-1-carboxamide]: 29.9 ± 5.6 nM, 39 and 1180 ± 265 nM.
Regarding `CC(C)(C)c1nc(N2CCN(CCCCNC(=O)N3CCN(c4ccccc4C#N)CC3)CC2)cc(C(F)(F)F)n1` [Compound 25, N-(4-(4-(2-(tert-Butyl)-6-(trifluoromethyl)pyrimidin-4-yl)piperazin-1-yl)butyl)-4-(2-cyanophenyl)piperazine-1-carboxamide], in assay [1], the affinity corresponds to a Ki of 16.6 ± 2.2 nM and the “D2/D3 (D3 selectivity ratio, D2 Ki/D3 Ki)” value is 23. The compound also showed an inhibitory constant (Ki) in assay [2] of 385 ± 58.5 nM.
Take `CC(C)(C)c1nc(N2CCN(CCCCNC(=O)N3CCN(c4cccc(C(F)(F)F)c4)CC3)CC2)cc(C(F)(F)F)n1` [Compound 27, N-(4-(4-(2-(tert-Butyl)-6-(trifluoromethyl)pyrimidin-4-yl)piperazin-1-yl)butyl)-4-(3-(trifluoromethyl)phenyl)piperazine-1-carboxamide]: in assay [1], the Ki is 29.6 ± 3.2 nM and the “D2/D3 (D3 selectivity ratio, D2 Ki/D3 Ki)” value is 35. Besides, the Ki in assay [2] was 1050 ± 95.7 nM.
As for `CC(C)(C)c1nc(N2CCN(CCCCNC(=O)N3CCN(c4ccc(C(F)(F)F)cc4)CC3)CC2)cc(C(F)(F)F)n1` [Compound 28, N-(4-(4-(2-(tert-Butyl)-6-(trifluoromethyl)pyrimidin-4-yl)piperazin-1-yl)butyl)-4-(4-(trifluoromethyl)phenyl)piperazine-1-carboxamide], in assay [1], the affinity corresponds to a Ki of 19.4 ± 4.8 nM and the “D2/D3 (D3 selectivity ratio, D2 Ki/D3 Ki)” value is on record as 22. Also, the affinity in assay [2], expressed as Ki, was 428 ± 102 nM.
Consider `CC(C)(C)c1nc(N2CCN(CCCCNC(=O)N3CCN(c4ccncc4)CC3)CC2)cc(C(F)(F)F)n1` [Compound 31, N-(4-(4-(2-(tert-Butyl)-6-(trifluoromethyl)pyrimidin-4-yl)piperazin-1-yl)butyl)-4-(pyridin-4-yl)piperazine-1-carboxamide], for which, in assay [1], affinity was put at a Ki of 2.6 ± 0.3 nM and the “D2/D3 (D3 selectivity ratio, D2 Ki/D3 Ki)” value is given as 38. In assay [2], this compound gave a Ki of 97.4 ± 21.7 nM.
The matching figures for `CC(C)(C)c1nc(N2CCN(CCCCNC(=O)N3CCN(c4cnccn4)CC3)CC2)cc(C(F)(F)F)n1` [Compound 33, N-(4-(4-(2-(tert-Butyl)-6-(trifluoromethyl)pyrimidin-4-yl)piperazin-1-yl)butyl)-4-(pyrazin-2-yl)piperazine-1-carboxamide]: 8.6 ± 1.8 nM, 54 and 463 ± 55.1 nM.
Turning to `CC(C)(C)c1nc(N2CCN(CCCCNC(=O)N3CCN(c4ccnc5ccccc45)CC3)CC2)cc(C(F)(F)F)n1` [Compound 34, N-(4-(4-(2-(tert-Butyl)-6-(trifluoromethyl)pyrimidin-4-yl)piperazin-1-yl)butyl)-4-(quinolin-4-yl)piperazine-1-carboxamide], the Ki in assay [1] amounted to 12.7 ± 2.5 nM; in assay [2], 524 ± 42.2 nM. Moreover, in assay [1], the “D2/D3 (D3 selectivity ratio, D2 Ki/D3 Ki)” value is given as 41.
For the compound `CC(C)(C)c1nc(N2CCN(CCCCNC(=O)N3CCN(C4CC4)CC3)CC2)cc(C(F)(F)F)n1` [Compound 35, N-(4-(4-(2-(tert-Butyl)-6-(trifluoromethyl)pyrimidin-4-yl)piperazin-1-yl)butyl)-4-cyclopropylpiperazine-1-carboxamide], the inhibition constant (Ki) in assay [1] was 12.8 ± 2.3 nM; in assay [2], 331 ± 51.9 nM. Moreover, the “D2/D3 (D3 selectivity ratio, D2 Ki/D3 Ki)” value in assay [1] is on record as 26.
As for `CC(C)(C)c1nc(N2CCN(CCCCNC(=O)N3CCN(Cc4ccccc4)CC3)CC2)cc(C(F)(F)F)n1` [Compound 36, 4-Benzyl-N-(4-(4-(2-(tert-butyl)-6-(trifluoromethyl)pyrimidin-4-yl)piperazin-1-yl)butyl)piperazine-1-carboxamide], in assay [1], the affinity, expressed as Ki, was 16.7 ± 4.4 nM and the “D2/D3 (D3 selectivity ratio, D2 Ki/D3 Ki)” value was 32. For the same compound, the Ki in assay [2] came out at 530 ± 45 nM.
The matching figures for `CC(C)(C)c1nc(N2CCN(CCCCNC(=O)N3CCN(C(=O)c4ccccc4)CC3)CC2)cc(C(F)(F)F)n1` [Compound 37, 4-Benzoyl-N-(4-(4-(2-(tert-butyl)-6-(trifluoromethyl)pyrimidin-4-yl)piperazin-1-yl)butyl)piperazine-1-carboxamide]: 29 ± 2.4 nM, 34 and 998 ± 252 nM.
In the case of `CC(C)(C)c1nc(N2CCN(CCCCNC(=O)N3CC(c4ccncc4)C3)CC2)cc(C(F)(F)F)n1` [Compound 38, N-(4-(4-(2-(tert-Butyl)-6-(trifluoromethyl)pyrimidin-4-yl)piperazin-1-yl)butyl)-3-(pyridin-4-yl)azetidine-1-carboxamide], in assay [1], the inhibition constant Ki came to 3.5 ± 0.7 nM and the “D2/D3 (D3 selectivity ratio, D2 Ki/D3 Ki)” value is reported as 173. Further, in assay [2], the affinity, expressed as Ki, was 605 ± 62 nM.
Regarding `CC(C)(C)c1nc(N2CCN(CCCCNC(=O)N3CCc4ccccc4C3)CC2)cc(C(F)(F)F)n1` [Compound 41, N-(4-(4-(2-(tert-Butyl)-6-(trifluoromethyl)pyrimidin-4-yl)piperazin-1-yl)butyl)-3,4-dihydroisoquinoline-2(1H)-carboxamide], in assay [1], the inhibitory constant (Ki) was 22.9 ± 5 nM and the “D2/D3 (D3 selectivity ratio, D2 Ki/D3 Ki)” value is reported as 21. Also, the inhibition constant (Ki) in assay [2] was 490 ± 70 nM.
For the compound `CC(C)(C)c1nc(N2CCN(CCCCNC(=O)N3CCc4ccccc4CC3)CC2)cc(C(F)(F)F)n1` [Compound 42, N-(4-(4-(2-(tert-Butyl)-6-(trifluoromethyl)pyrimidin-4-yl)piperazin-1-yl)butyl)-4,5-dihydro-1H-benzo[d]azepine-3(2H)-carboxamide], in assay [1], the Ki was 2.3 ± 0.3 nM and the “D2/D3 (D3 selectivity ratio, D2 Ki/D3 Ki)” value is reported as 281. Affinity in assay [2] was put at a Ki of 646 ± 1.5 nM.
